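Method: 48-hour compound exposure of cells in 96-well plates, five concentrations, linear interpolation of endpoints. TGI marks complete inhibition of growth.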
What was measured:
Experiment in all cases: NCI-60 cell line screen, 48 h
[1] = system: DLD-1 colon
[2] = system: IGROV1 ovarian
[3] = system: UO-31 renal
[4] = system: SNB-75 CNS
[5] = system: U251 CNS
[6] = system: CAKI-1 renal
[7] = system: NCI-H226 lung
[8] = system: MALME-3M melanoma
[9] = system: SK-MEL-28 melanoma
[10] = system: SN12C renal
[11] = system: UACC-62 melanoma
[12] = system: M14 melanoma
[13] = system: HOP-18 NSCLC
[14] = system: ACHN renal
[15] = system: M19-MEL melanoma
[16] = system: LOX IMVI melanoma
[17] = system: OVCAR-8 ovarian
[18] = system: HT29 colon
[19] = system: OVCAR-4 ovarian
[20] = system: COLO 205 colon
[21] = system: OVCAR-5 ovarian
[22] = system: SNB-78 CNS
[23] = system: XF 498 CNS
[24] = system: RPMI-8226 leukemia
[25] = system: HCT-116 colon
[26] = system: 786-0 renal
[27] = system: OVCAR-3 ovarian
[28] = system: K-562 leukemia
[29] = system: HL-60(TB) leukemia
[30] = system: SF-539 CNS
[31] = system: HCC-2998 colon
[32] = system: DMS 273 small cell lung
[33] = system: KM20L2 colon
[34] = system: SF-268 CNS
[35] = system: LXFL 529 NSCLC
[36] = system: NCI-H23 lung
[37] = system: SW-620 colon
[38] = system: HOP-62 NSCLC
[39] = system: HCT-15 colon
[40] = system: EKVX NSCLC
[41] = system: SNB-19 CNS
[42] = system: RXF 393 renal
[43] = system: DMS 114 small cell lung
[44] = system: MOLT-4 leukemia
[45] = system: A549 NSCLC
[46] = system: SF-295 CNS
[47] = system: NCI-H460 lung
[48] = system: SR leukemia
[49] = system: KM12 colon
[50] = system: SK-MEL-5 melanoma
[51] = system: UACC-257 melanoma
[52] = system: SK-OV-3 ovarian
[53] = system: SK-MEL-2 melanoma
[54] = system: HOP-92 NSCLC
[55] = system: NCI-H522 lung
[56] = system: A498 renal
[57] = system: TK-10 renal
[58] = system: CCRF-CEM leukemia
[59] = system: MDA-MB-231 breast
[60] = system: HS 578T breast
[61] = system: T-47D breast
[62] = system: MCF7 breast
[63] = system: BT-549 breast
[64] = system: PC-3 prostate
[65] = system: DU-145 prostate
[66] = system: NCI/ADR-RES ovarian
[67] = system: RXF-631 renal
[68] = system: MDA-MB-435
[69] = system: MDA-N

C/C(=N/O)c1ccc2c(c1)C(=NO)c1cc(/C(C)=N/O)ccc1-2
TGI [1]: 52.8 µM | TGI [2]: 49.2 µM | TGI [3]: 28.3 µM | TGI [4]: 36.3 µM | TGI [5]: 28.6 µM | TGI [6]: > 100 µM | TGI [7]: 26.8 µM | TGI [8]: 23 µM | TGI [9]: 31.7 µM | TGI [10]: 33.6 µM | TGI [11]: 38.4 µM | TGI [12]: 31.2 µM | TGI [13]: 27.4 µM | TGI [14]: 20.8 µM | TGI [15]: 64.8 µM | TGI [16]: 26.7 µM | TGI [17]: 32.3 µM | TGI [18]: 30 µM | TGI [19]: 30.5 µM | TGI [20]: 38.5 µM | TGI [21]: 31.6 µM | TGI [22]: 47.9 µM | TGI [23]: 36.2 µM | TGI [24]: > 100 µM | TGI [25]: 64.6 µM | TGI [26]: 42.3 µM | TGI [27]: 39.3 µM | TGI [28]: > 100 µM | TGI [29]: 91.4 µM | TGI [30]: 31.4 µM | TGI [31]: 33.9 µM | TGI [32]: > 100 µM | TGI [33]: 32.3 µM | TGI [34]: 28.3 µM | TGI [35]: 29 µM | TGI [36]: 35.3 µM | TGI [37]: 34.8 µM | TGI [38]: 28.3 µM | TGI [39]: 36.3 µM | TGI [40]: 41.7 µM | TGI [41]: 26.8 µM | TGI [42]: 48.8 µM | TGI [43]: 53.7 µM | TGI [44]: 13.2 µM | TGI [45]: 68.6 µM | TGI [46]: 29.1 µM | TGI [47]: 31.8 µM | TGI [48]: > 100 µM | TGI [49]: 32.9 µM | TGI [50]: 28.5 µM | TGI [51]: 5.87 µM | TGI [52]: 36.5 µM | TGI [53]: 40.1 µM | TGI [54]: 47.4 µM | TGI [55]: 53.3 µM

CC(=O)NC1=C(NCC(C)C)C(=O)c2ccccc2C1=O
TGI [1]: 40.1 µM | TGI [2]: > 100 µM | TGI [3]: 34.4 µM | TGI [4]: 31.1 µM | TGI [5]: > 100 µM | TGI [6]: 30.6 µM | TGI [7]: 29.5 µM | TGI [8]: 34.2 µM | TGI [9]: 37.2 µM | TGI [56]: > 100 µM | TGI [10]: 31.2 µM | TGI [11]: 34.7 µM | TGI [12]: 33.2 µM | TGI [13]: 29.5 µM | TGI [14]: > 100 µM | TGI [15]: 34.2 µM | TGI [16]: 30.1 µM | TGI [17]: 47.2 µM | TGI [18]: > 100 µM | TGI [19]: > 100 µM | TGI [57]: 40.9 µM | TGI [20]: > 100 µM | TGI [21]: > 100 µM | TGI [22]: 89.1 µM | TGI [23]: 27 µM | TGI [24]: > 100 µM | TGI [25]: 35.2 µM | TGI [26]: 31.9 µM | TGI [27]: 32.4 µM | TGI [28]: 36.7 µM | TGI [29]: 7.32 µM | TGI [30]: 32.2 µM | TGI [31]: > 100 µM | TGI [32]: 30.7 µM | TGI [33]: 43.9 µM | TGI [34]: 46.3 µM | TGI [35]: 34.4 µM | TGI [36]: 59.7 µM | TGI [37]: 33.1 µM | TGI [38]: > 100 µM | TGI [39]: 33.7 µM | TGI [40]: 59.9 µM | TGI [41]: > 100 µM | TGI [42]: 25.4 µM | TGI [58]: 28.4 µM | TGI [43]: 31.7 µM | TGI [44]: > 100 µM | TGI [45]: > 100 µM | TGI [46]: > 100 µM | TGI [47]: > 100 µM | TGI [49]: > 100 µM | TGI [50]: 43.6 µM | TGI [51]: 36.4 µM | TGI [52]: > 100 µM | TGI [53]: 67.8 µM | TGI [54]: 28.3 µM

C/C(=N\Nc1ccccc1)C(CN(C)C)C(c1ccccc1)c1c(O)c2ccccc2oc1=O (stereo not given)
TGI [59]: > 100 µM | TGI [2]: > 100 µM | TGI [3]: > 100 µM | TGI [4]: > 100 µM | TGI [5]: > 100 µM | TGI [6]: > 100 µM | TGI [7]: > 100 µM | TGI [8]: > 100 µM | TGI [9]: > 100 µM | TGI [60]: > 100 µM | TGI [56]: > 100 µM | TGI [10]: > 100 µM | TGI [61]: > 100 µM | TGI [11]: > 100 µM | TGI [12]: > 100 µM | TGI [14]: > 100 µM | TGI [15]: > 100 µM | TGI [62]: > 100 µM | TGI [16]: > 100 µM | TGI [63]: > 100 µM | TGI [64]: > 100 µM | TGI [17]: > 100 µM | TGI [18]: > 100 µM | TGI [19]: > 100 µM | TGI [65]: > 100 µM | TGI [57]: > 100 µM | TGI [20]: > 100 µM | TGI [21]: > 100 µM | TGI [66]: > 100 µM | TGI [24]: > 100 µM | TGI [25]: > 100 µM | TGI [26]: > 100 µM | TGI [27]: > 100 µM | TGI [28]: > 100 µM | TGI [29]: > 100 µM | TGI [30]: > 100 µM | TGI [31]: > 100 µM | TGI [33]: > 100 µM | TGI [34]: > 100 µM | TGI [35]: > 100 µM | TGI [36]: > 100 µM | TGI [37]: > 100 µM | TGI [38]: > 100 µM | TGI [39]: > 100 µM | TGI [40]: > 100 µM | TGI [41]: > 100 µM | TGI [42]: > 100 µM | TGI [58]: > 100 µM | TGI [67]: > 100 µM | TGI [43]: > 100 µM | TGI [44]: > 100 µM | TGI [45]: > 100 µM | TGI [46]: > 100 µM | TGI [47]: > 100 µM | TGI [48]: > 100 µM | TGI [68]: > 100 µM | TGI [49]: > 100 µM | TGI [50]: > 100 µM | TGI [51]: > 100 µM | TGI [52]: > 100 µM | TGI [69]: > 100 µM | TGI [53]: > 100 µM | TGI [54]: 97 µM | TGI [55]: > 100 µM

Reference: PubChem BioAssay (NCI)
